In data set [1] the test system is Kv3.4. Put plainly: Ion channel selectivity screen, voltage-clamp, heterologous expression in Xenopus laevis oocytes and/or COS cells. The following applies: 1 μM PhlTx1. The class given is cell-based.
The subject of data set [2] is Nav1.3/β1. Put plainly: Two-electrode voltage-clamp on Xenopus laevis oocytes expressing Nav1.3/β1. The format is cell-based. The text has this:
(§1) Using the two-electrode voltage-clamp technique on Xenopus laevis oocytes, the effect of PhlTx1 was also compared on eight different cloned vertebrate Nav channels co-expressed with the β1 subunit (Nav1.1-1.8/β1) and on the neuronal insect Nav channel, para, co-expressed with the tipE subunit (Figure 3 and Figure 4). […] Normalized current-voltage relationships (I-V curve) of Nav1.2/β1 and Nav1.3/β1 channels seemed to be shifted towards more negative potentials when PhlTx1 was applied, but shifts were not statistically significant […] (Figure 4). The activation phase of the other studied Nav channel subtypes was not affected. No obvious alteration in channel availability was observed, except a 5-mV negative shift for Nav1.3/β1, although that was also non-significant (p > 0.05).
(§2) Figure 4 1 µM of PhlTx1 was tested on Nav1.1/β1, Nav1.2/β1, Nav1.3/β1, Nav1.4/β1, Nav1.5/β1, Nav1.6/β1, Nav1.8/β1 and para/tipE (n ≥ 3). Left column: current traces were evoked by a 50-ms depolarization to the voltage of maximum sodium influx, depending on the Nav studied, from a holding potential of −90 mV. At 1 µM PhlTx1, all studied Nav channels, except Nav1.4/β1, were blocked for about 10% (no toxin: *). The current of Nav1.4/β1 was reduced for about 35 ± 5%. Middle column: normalized I-V curves reveal no significant shift of the activation voltage (p > 0.05). […]
(In two-electrode clamp one electrode senses voltage and the other passes current.)

The conditions of data set [3]: mice; PhlTx1 100 pmoles or morphine 0.25 mg in 10 µL.
For data set [4], the target named is T1, hNav1.4 (Homo sapiens, UniProt P35499).
T1 construct: expressed in transfected cells; host or cells: CHO cells
T1 sequence (P35499 whole entry): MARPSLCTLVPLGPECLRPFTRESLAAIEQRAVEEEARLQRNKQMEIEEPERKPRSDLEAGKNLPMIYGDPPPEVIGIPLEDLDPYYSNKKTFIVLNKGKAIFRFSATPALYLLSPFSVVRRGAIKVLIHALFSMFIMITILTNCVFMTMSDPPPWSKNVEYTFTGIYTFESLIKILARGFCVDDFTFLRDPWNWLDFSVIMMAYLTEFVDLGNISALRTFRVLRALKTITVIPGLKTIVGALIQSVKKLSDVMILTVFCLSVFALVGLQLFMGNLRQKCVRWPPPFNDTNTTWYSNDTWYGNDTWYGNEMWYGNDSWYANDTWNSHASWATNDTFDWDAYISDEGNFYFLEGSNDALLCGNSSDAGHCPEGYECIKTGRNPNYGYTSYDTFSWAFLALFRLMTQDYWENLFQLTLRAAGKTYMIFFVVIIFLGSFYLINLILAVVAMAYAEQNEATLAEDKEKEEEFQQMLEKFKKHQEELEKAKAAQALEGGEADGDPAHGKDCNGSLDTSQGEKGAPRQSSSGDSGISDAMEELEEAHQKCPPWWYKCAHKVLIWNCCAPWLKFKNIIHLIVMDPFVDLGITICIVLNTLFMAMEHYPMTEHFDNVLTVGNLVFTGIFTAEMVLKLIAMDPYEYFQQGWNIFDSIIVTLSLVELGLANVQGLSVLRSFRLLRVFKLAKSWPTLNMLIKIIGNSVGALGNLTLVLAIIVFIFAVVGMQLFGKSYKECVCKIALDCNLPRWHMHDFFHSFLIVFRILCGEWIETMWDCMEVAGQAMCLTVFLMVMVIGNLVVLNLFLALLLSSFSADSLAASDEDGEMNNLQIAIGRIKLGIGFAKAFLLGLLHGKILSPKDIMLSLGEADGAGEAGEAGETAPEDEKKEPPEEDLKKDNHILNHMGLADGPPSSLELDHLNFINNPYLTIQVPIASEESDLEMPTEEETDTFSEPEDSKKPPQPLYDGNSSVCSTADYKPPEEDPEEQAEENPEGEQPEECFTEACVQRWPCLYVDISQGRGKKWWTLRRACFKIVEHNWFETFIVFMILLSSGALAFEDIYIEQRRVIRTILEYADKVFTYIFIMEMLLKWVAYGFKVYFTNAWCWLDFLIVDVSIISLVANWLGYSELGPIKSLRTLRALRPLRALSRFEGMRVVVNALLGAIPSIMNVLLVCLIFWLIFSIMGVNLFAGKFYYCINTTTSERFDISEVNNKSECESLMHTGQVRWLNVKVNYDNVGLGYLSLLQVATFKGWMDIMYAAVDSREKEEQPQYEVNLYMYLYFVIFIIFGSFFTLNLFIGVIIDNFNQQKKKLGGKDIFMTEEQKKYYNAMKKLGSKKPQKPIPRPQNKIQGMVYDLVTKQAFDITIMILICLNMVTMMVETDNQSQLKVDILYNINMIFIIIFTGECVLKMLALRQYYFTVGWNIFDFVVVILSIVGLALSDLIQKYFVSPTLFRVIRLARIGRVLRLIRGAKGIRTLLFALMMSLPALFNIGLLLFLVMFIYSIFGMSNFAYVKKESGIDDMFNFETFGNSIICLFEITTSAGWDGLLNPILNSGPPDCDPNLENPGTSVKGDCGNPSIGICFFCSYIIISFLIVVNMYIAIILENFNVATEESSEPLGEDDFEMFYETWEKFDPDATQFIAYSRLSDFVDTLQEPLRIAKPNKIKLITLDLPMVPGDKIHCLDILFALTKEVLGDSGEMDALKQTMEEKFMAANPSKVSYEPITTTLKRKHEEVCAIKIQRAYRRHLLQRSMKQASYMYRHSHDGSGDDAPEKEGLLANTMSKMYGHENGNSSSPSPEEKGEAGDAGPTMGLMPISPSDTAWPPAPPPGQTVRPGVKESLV
Put plainly: Automated patch-clamp dose-response on hNav1.4 expressed in CHO cells. The format is cell-based. The following applies: 4 to 13 cells per concentration, read-out: calculated IC50.

Data set [5] deals with Nav1.5/β1. Put plainly: Two-electrode voltage-clamp on Xenopus laevis oocytes expressing Nav1.5/β1. The class given is cell-based. The following applies: 1 µM; voltage of maximum sodium influx, holding −90 mV; oocytes TEVC; n ≥ 3.
Text: as §1, §2

Data on one molecule can be found in article PMC6628435, “Chemical Synthesis, Proper Folding, Nav Channel Selectivity Profile and Analgesic Properties of the Spider Peptide Phlotoxin 1” (Toxins, 2019).

Molecules are shown by their SMILES. Bridge positions count the residues as written; N and C are the ends. Peptide text beside a SMILES is read from it. Where only a bound is given, the exact number is not on record here.

Usually IC50 stands for the concentration needed to halve the response being measured.

Turning to `CC(C)C[C@@H]1NC(=O)[C@@H](NC(=O)[C@H](C)N)CSSC[C@@H]2NC(=O)[C@@H]3CSSC[C@@H](C(=O)N[C@@H](CCCNC(=N)N)C(=O)N[C@@H](Cc4ccc(O)cc4)C(=O)N[C@@H](CCCCN)C(=O)N[C@@H](CC(C)C)C(=O)N[C@@H](Cc4ccccc4)C(=O)O)NC(=O)[C@H](Cc4c[nH]c5ccccc45)NC(=O)[C@@H]4CCCN4C(=O)[C@H](Cc4ccc(O)cc4)NC(=O)[C@H](CCCCN)NC(=O)[C@H](Cc4c[nH]c5ccccc45)NC(=O)[C@H](CCC(=O)O)NC(=O)[C@H](CSSC[C@H](NC(=O)[C@H](CO)NC(=O)[C@H](CC(=O)O)NC(=O)[C@H](Cc4c[nH]c5ccccc45)NC(=O)[C@H](CCC(N)=O)NC(=O)CNC1=O)C(=O)N[C@@H](CC(=O)O)C(=O)N1CCC[C@H]1C(=O)N[C@@H](CCCCN)C(=O)N[C@@H](C)C(=O)N[C@@H](CO)C(=O)N[C@@H](CCCCN)C(=O)N3)NC(=O)[C@H](C)NC(=O)[C@H](Cc1ccc(O)cc1)NC(=O)[C@H](CC(N)=O)NC(=O)[C@@H]1CCCN1C2=O` [PhlTx1, Phlotoxin-1] (H-ACLGQWDSCDPKASKCCPNYACEWKYPWCRYKLF-OH; disulfide 2-17, 9-22, 16-29; N-terminus and C-terminus assumed), the “current inhibition at the voltage of maximum ion flux” value in data set [1] is on record as about 20%. In addition, the “negative shift in channel availability” value in data set [2] (1 µM PhlTx1, non-significant (p > 0.05)) came to 5 mV. Further, the “block of sodium current” value was “about 10%” in data set [2] (1 µM, voltage of maximum sodium influx, holding −90 mV, oocytes TEVC, n ≥ 3) and “about 10%” in data set [5]. The “neurotoxicity after intrathecal injection” value in data set [3] was “no neurotoxicity was observed”. For the same molecule, the IC50 in data set [4] is over 3 µM.
